From patent publication US11420935B2, “Bicyclic compounds” (Vivace Therapeutics, Inc., priority 2019, dated 2022)

The molecules below were run on 8×TBD luciferase reporter (YAP) in HEK293T cells (assay: YAP Reporter Assay (8×TBD firefly luciferase reporter)). Settings: Homo sapiens, HEK-293T, 24 h, read-out: Firefly Luciferase IC50 (μM).
Type: cell-based
Description: HEK293T cells stably transfected with 8×TBD luciferase reporter and pRLTK in 384-well plates were treated with the test compounds, starting from 3 μM (final concentration in assay plate), 1:3 dilution, and 10 points in quadruplicates. Post 24-hr incubation with compounds at 37° C. and 5% CO2, cells were lysed and 8×TBD-driven firefly luciferase and control TK-driven renilla luciferase activities were measured using Promega Dual-Luciferase Reporter Assay System.
Reagents: The reagents used for this study are: DMEM: Invitrogen #11960077, Dual-Glo Luciferase Assay System: Promega-E2980, Puromycin Dihydrochloride: Invitrogen-A1113803, 384-well plate: PerkinElmer-6007480, L-GLUTAMINE: Invitrogen-25030164, Hygromycin B: Invitrogen-10687010, and Penicillin-Streptomycin: Merk-TMS-AB2-C
Media: The media used for this assay were: Culture Medium: DMEM+1 ug/mL puromycin+200 ug/mL hygromycin (with 10% FBS+1 mM L-glutamine); and Assay Medium: DMEM (with 10% FBS+1 mM L-glutamine+1×P/S).
Cell Plating: The appropriate media was warmed at 37° C. by water bath: Culture Medium, Assay Medium, 1*D-PBS, 0.05% trypsin-EDTA. The cells were trypsinized after removing all media, then washed with 1*sterile D-PBS and then with 2 ml 0.05% trypsin-EDTA. The cells were then incubated at RT for one minute. Then 10 ml/75 cm2 flask Assay Medium was added to each flask. Using a 10 ml pipette, the cells were then gently resuspended in the media, until the clumps completely disappeared. The cells were then transferred into 50 ml centrifuge tubes and were centrifuged at 800 rpm for 5 mins. The medium was removed and the cells were resuspended with Assay Medium. An aliquot of cells was used to count the cell density (cells/ml). The cell suspension was then diluted with Assay Medium to a concentration of 6×10^4 cells/ml. 50 ul cells suspension was then plated to 384-well plate (PerkinElmer-6007480), 3×10^3 cells/well and the cells were incubated in an incubator at 37° C., 5% CO2.
Compound Treatment: In the afternoon (incubation of the plate with 3-4 hrs), the test compounds were added by Echo, starting from 3 uM (final concentration in the assay plate), 1:3 dilution, 10 points, quadruplicates. The plate was placed at 37° C., 5% CO2 incubator for 24 hrs.
Detection: The Dual-Glo Luciferase Reagent was prepared by transferring the contents of one bottle of Dual-Glo Luciferase Buffer to one bottle of Dual-Glo Luciferase Substrate to create the Dual-Glo Luciferase Reagent. Mixing was performed by inversion until the substrate was thoroughly dissolved. After mixing, the reagent was aliquoted into 15 ml tubes. In the afternoon (24 hrs post compound treatment), the DMEM+medium in the 384 well plates were aspirated by Microplate Washer.
Measuring firefly luciferase activity: 20 ul Dual-Glo Luciferase Reagent was added to the 384-well plates. The plates were protected from light to prevent interference with the assay. The plates were shaken for 1 min followed centrifuging plates at 1000 rpm for 30 seconds. After waiting at least 10 minutes, the firefly luminescence was measured by Envision.
Measuring renilla luciferase activity: 20 ul Stop-Glo Reagent was added to the 384-well plates. The plates were shaken for 1 min and then centrifuged at 1000 rpm for 30 seconds. After waiting at least 10 minutes, the renilla luminescence was measured by Envision.
Compound IC50 and maximum inhibition on the firefly luciferase and renilla luciferase activities were reported separately.

Row | SMILES | IC50
1 | C[C@H](NC(=O)c1ccc2c(Oc3ccc(C(F)(F)F)cc3)cccc2c1)C1CN(CCO)C1 [Compound 128, (S)—N-(1-(1-(2-hydroxyethyl)azetidin-3-yl)ethyl)-5-(4-(trifluoromethyl)phenoxy)-2-naphthamide] | 0.1 to 1 µM
2 | CC(C)NC(=O)c1cnc2c(Oc3ccc(C(F)(F)F)cc3)cccc2c1 [Compound 13, N-isopropyl-8-[4-(trifluoromethyl)phenoxy]quinoline-3-carboxamide] | < 0.1 µM
3 | COc1cc(Oc2ccc(C(F)(F)F)cc2)c2ncc(C(=O)NC(C)C)cc2c1 [Compound 113, N-Isopropyl-6-methoxy-8-(4-(trifluoromethyl)phenoxy)quinoline-3-carboxamide] | < 0.1 µM
4 | N#CCCNC(=O)c1ccc2c(Oc3ccc(C(F)(F)F)cc3)cccc2c1 [Compound 23, N-(2-cyanoethyl)-5-(4-(trifluoromethyl)phenoxy)-2-naphthamide] | < 0.1 µM
5 | N#CCNC(=O)c1ccc2c(Oc3ccc(C(F)(F)F)cc3)cccc2c1 [Compound 22, N-(cyanomethyl)-5-(4-(trifluoromethyl)phenoxy)-2-naphthamid] | < 0.1 µM
6 | C[C@@H](NC(=O)c1ccc2c(Oc3ccc(C(F)(F)F)cc3)cccc2c1)C1CN(CCO)C1 [Compound 135, (R)—N-(1-(1-(2-hydroxyethyl)azetidin-3-yl)ethyl)-5-(4-(trifluoromethyl)phenoxy)-2-naphthamide] | 0.1 to 1 µM

Same assay, conditions: Homo sapiens, HEK-293T; HEK293T cells stably transfected with 8×TBD luciferase reporter and pRLTK; 24-hr incubation; firefly luciferase activity; read-out: Firefly Luciferase IC50

Row | SMILES | IC50
7 | O=C(N[C@@H](CO)C1CNC1)c1ccc2c(Oc3ccc(C(F)(F)F)cc3)cccc2c1 [Compound 140, (R)—N-(1-(azetidin-3-yl)-2-hydroxyethyl)-5-(4-(trifluoromethyl)phenoxy)-2-naphthamide] | 1 to 3 µM
8 | CCN1CC([C@@H](C)NC(=O)c2ccc3c(Oc4ccc(C(F)(F)F)cc4)cccc3c2)C1 [Compound 131, (R)—N-(1-(1-ethylazetidin-3-yl)ethyl)-5-(4-(trifluoromethyl)phenoxy)-2-naphthamide] | 0.1 to 1 µM
9 | C[C@@H](NC(=O)c1ccc2c(Oc3ccc(C(F)(F)F)cc3)cccc2c1)C1CN(CCF)C1 [Compound 124, (R)—N-(1-(1-(2-fluoroethyl)azetidin-3-yl)ethyl)-5-(4-(trifluoromethyl)phenoxy)-2-naphthamide] | < 0.1 µM
10 | C[C@H](NC(=O)c1cc2cccc(Oc3ccc(C(F)(F)F)cc3)c2s1)c1ccccn1 [Compound 97, (S)—N-(1-(pyridin-2-yl)ethyl)-7-(4-(trifluoromethyl)phenoxy)benzothiophene-2-carboxamide] | < 0.1 µM
11 | C#CCCNC(=O)c1ccc2c(Oc3ccc(C(F)(F)F)cc3)cccc2c1 [Compound 21, N-(but-3-yn-1-yl)-5-(4-(trifluoromethyl)phenoxy)-2-naphthamide] | < 0.1 µM
12 | C[C@H](CCNCCO)NC(=O)c1ccc2c(Oc3ccc(C(F)(F)F)cc3)cccc2c1 [Compound 147, (R)-N-(4-((2-hydroxyethyl)amino)butan-2-yl)-5-(4-(trifluoromethyl)phenoxy)-2-naphthamide] | < 0.1 µM
13 | CCN1CC([C@H](C)NC(=O)c2ccc3c(Oc4ccc(C(F)(F)F)cc4)cccc3c2)C1 [Compound 130, (S)—N-(1-(1-ethylazetidin-3-yl)ethyl)-5-(4-(trifluoromethyl)phenoxy)-2-naphthamide] | 0.1 to 1 µM
14 | C[C@H](NC(=O)c1ccc2c(Oc3ccc(C(F)(F)F)cc3)cccc2c1)c1cnccn1 [Compound 47, (S)—N-(1-(pyrazin-2-yl)ethyl)-5-(4-(trifluoromethyl)phenoxy)-2-naphthamide] | 0.1 to 1 µM
15 | C[C@@H](CN)NC(=O)c1ccc2c(Oc3ccc(C(F)(F)F)cc3)cccc2c1 [Compound 108, (S)—N-(1-aminopropan-2-yl)-5-(4-(trifluoromethyl)phenoxy)-2-naphthamide] | < 0.1 µM
16 | CS(=O)(=O)NC(=O)c1ccc2c(Oc3ccc(F)c(F)c3)cccc2c1 [Compound 10, 5-(3,4-difluorophenoxy)-N-(methylsulfonyl)-2-naphthamide] | < 0.1 µM
17 | C[C@H](CCN(C)C)NC(=O)c1ccc2c(Oc3ccc(C(F)(F)F)cc3)cccc2c1 [Compound 144, (R)-N-(4-(dimethylamino)butan-2-yl)-5-(4-(trifluoromethyl)phenoxy)-2-naphthamide] | < 0.1 µM
18 | C[C@H](CCO)NC(=O)c1ccc2c(Oc3ccc(C(F)(F)F)cc3)cccc2c1 [Compound 114, (R)—N-(4-hydroxybutan-2-yl)-5-(4-(trifluoromethyl)phenoxy)-2-naphthamide] | < 0.1 µM
19 | C[C@@H](NC(=O)c1ccc2c(Oc3ccc(C(F)(F)F)cc3)cccc2c1)c1cc(N(C)C)ccn1 [Compound 74, (R)—N-(1-(4-(dimethylamino)pyridin-2-yl)ethyl)-5-(4-(trifluoromethyl)phenoxy)-2-naphthamide] | 1 to 3 µM
20 | C[C@@H](NC(=O)c1ccc2c(Oc3ccc(C(F)(F)F)cc3)cccc2c1)C1CN(CCCCO)C1 [Compound 123, (R)—N-(1-(1-(4-hydroxybutyl)azetidin-3-yl)ethyl)-5-(4-(trifluoromethyl)phenoxy)-2-naphthamide] | 0.1 to 1 µM
21 | C[C@@H](NC(=O)c1ccc2c(Oc3ccc(C(F)(F)F)cc3)cccc2c1)C1CC1 [Compound 38, (R)—N-(1-cyclopropylethyl)-5-(4-(trifluoromethyl)phenoxy)-2-naphthamide] | < 0.1 µM
22 | C[C@H](NC(=O)c1ccc2c(Oc3ccc(C(F)(F)F)cc3)cccc2c1)C1CC1 [Compound 39, (S)—N-(1-cyclopropylethyl)-5-(4-(trifluoromethyl)phenoxy)-2-naphthamide] | < 0.1 µM
23 | C[C@@H](NC(=O)c1ccc2c(Oc3ccc(C(F)(F)F)cc3)cccc2c1)c1nccn1C [Compound 68, (R)—N-(1-(1-methyl-1H-imidazol-2-yl)ethyl)-5-(4-(trifluoromethyl)phenoxy)-2-naphthamide] | 0.1 to 1 µM
24 | C[C@H](CN)NC(=O)c1ccc2c(Oc3ccc(C(F)(F)F)cc3)cccc2c1 [Compound 107, (R)—N-(1-aminopropan-2-yl)-5-(4-(trifluoromethyl)phenoxy)-2-naphthamide] | 0.1 to 1 µM
25 | COC[C@@H](C)NC(=O)c1ccc2c(Oc3ccc(C(F)(F)F)cc3)cccc2c1 [Compound 26, (R)—N-(1-methoxypropan-2-yl)-5-(4-(trifluoromethyl)phenoxy)-2-naphthamide] | < 0.1 µM
26 | O=C(NC1(c2ccccc2)COC1)c1ccc2c(Oc3ccc(C(F)(F)F)cc3)cccc2c1 [Compound 37, N-(3-phenyloxetan-3-yl)-5-(4-(trifluoromethyl)phenoxy)-2-naphthamide] | < 0.1 µM
27 | CCNCC[C@@H](C)NC(=O)c1ccc2c(Oc3ccc(C(F)(F)F)cc3)cccc2c1 [Compound 146, (R)-N-(4-(ethylamino)butan-2-yl)-5-(4-(trifluoromethyl)phenoxy)-2-naphthamide] | < 0.1 µM
28 | CC(C)NC(=O)c1ccc2c(Oc3ccc(C(F)(F)F)cc3)cccc2n1 [Compound 70, N-Isopropyl-5-(4-(trifluoromethyl)phenoxy)quinoline-2-carboxamide] | < 0.1 µM
29 | O=C(N[C@H](CCO)c1ccccn1)c1ccc2c(Oc3ccc(C(F)(F)F)cc3)cccc2c1 [Compound 109, (R)—N-(3-hydroxy-1-(pyridin-2-yl)propyl)-5-(4-(trifluoromethyl)phenoxy)-2-naphthamide] | 0.1 to 1 µM
30 | CC(C)N1CC([C@@H](C)NC(=O)c2ccc3c(Oc4ccc(C(F)(F)F)cc4)cccc3c2)C1 [Compound 133, (R)—N-(1-(1-isopropylazetidin-3-yl)ethyl)-5-(4-(trifluoromethyl)phenoxy)-2-naphthamide] | 1 to 3 µM
31 | COc1cc(Oc2ccc(C(F)(F)F)cc2)c2ncc(C(=O)N[C@@H](C)c3ccccn3)cc2c1 [Compound 43, (S)-6-methoxy-N-(1-(pyridin-2-yl)ethyl)-8-(4-(trifluoromethyl)phenoxy)quinoline-3-carboxamide] | < 0.1 µM
